Common to all, as to format: functional
The subject of assay [1] is Mycobacterium tuberculosis. Description: Antituberculosis activity against Mycobacterium tuberculosis H37Rv assessed as growth inhibition after 12 to 28 days by L-J MIC method. The note with it: for MIC: Mycobacterium tuberculosis, H37Rv.
For assay [2], the system named is Candida albicans. Nature of the assay: Antimicrobial activity against Candida albicans MTCC 183 assessed as growth inhibition after 48 hr by agar streak dilution technique. The note with it: MTCC 183, 48 h.
The test system of assay [3] is Aspergillus niger. Nature of the assay: Antimicrobial activity against Aspergillus niger MTCC 282 assessed as growth inhibition after 48 hr by agar streak dilution technique. The note with it: MTCC 282, 48 h.
In assay [4] the test system is Pseudomonas aeruginosa. Nature of the assay: Antimicrobial activity against Pseudomonas aeruginosa MTCC 741 assessed as growth inhibition after 24 hr by agar streak dilution technique. The settings on record: MTCC 741, 24 h.
Assay [5] concerns Escherichia coli. Nature of the assay: Antimicrobial activity against Escherichia coli MTCC 739 assessed as growth inhibition after 24 hr by agar streak dilution technique. The settings on record: MTCC 739, 24 h.
The subject of assay [6] is Bacillus subtilis. Nature of the assay: Antimicrobial activity against Bacillus subtilis MTCC 430 assessed as growth inhibition after 24 hr by agar streak dilution technique. The note with it: MTCC 430, 24 h.
Assay [7] concerns Staphylococcus aureus. Nature of the assay: Antimicrobial activity against Staphylococcus aureus MTCC 96 assessed as growth inhibition after 24 hr by agar streak dilution technique. The settings on record: MTCC 96, 24 h.
For assay [8], the system named is Candida albicans. Nature of the assay: Antimicrobial activity against Candida albicans MTCC 183 assessed as diameter of growth inhibition zone after 24 hr by paper disk diffusion technique.
For assay [9], the system named is Aspergillus niger. Description: Antimicrobial activity against Aspergillus niger MTCC 282 assessed as diameter of growth inhibition zone after 24 hr by paper disk diffusion technique. (In general: In agar diffusion tests the substance spreads into inoculated agar from a disc or well.)
For assay [10], the system named is Pseudomonas aeruginosa. Nature of the assay: Antimicrobial activity against Pseudomonas aeruginosa MTCC 741 assessed as diameter of growth inhibition zone after 24 hr by paper disk diffusion technique.
Assay [11] has as its system Escherichia coli. Description: Antimicrobial activity against Escherichia coli MTCC 739 assessed as diameter of growth inhibition zone after 24 hr by paper disk diffusion technique.
Assay [12] deals with Bacillus subtilis. Description: Antimicrobial activity against Bacillus subtilis MTCC 430 assessed as diameter of growth inhibition zone after 24 hr by paper disk diffusion technique.
The test system of assay [13] is Staphylococcus aureus. Nature of the assay: Antimicrobial activity against Staphylococcus aureus MTCC 96 assessed as diameter of growth inhibition zone after 24 hr by paper disk diffusion technique.

Molecules are shown by their SMILES. Values after ≈ are worked out from the molar mass of the structure shown.

For `O=C1CSC(c2cc3ccccc3nc2Cl)N1c1cccc(Cl)c1` (configuration not stated), the “growth inhibition (GI)” value in assay [1] is given as 97%. Also, the MIC in assay [1] is 50 µg/mL (≈ 133 µM); in the assay with Candida albicans [2] it was 100 µg/mL (≈ 266 µM); with Aspergillus niger [3] it was 50 µg/mL (≈ 133 µM); with Pseudomonas aeruginosa [4] it was 25 µg/mL (≈ 66.6 µM); in the assay on Escherichia coli [5] it was 62.5 µg/mL (≈ 167 µM); in the assay on Bacillus subtilis [6] it was 12.5 µg/mL (≈ 33.3 µM). Besides, the MIC in the assay with Staphylococcus aureus [7] amounted to 25 µg/mL (≈ 66.6 µM). Besides, the “diameter of the inhibition zone (DIZ)” value is listed as 20 mm in the assay with Candida albicans [8]; 24 mm with Aspergillus niger [9]; 23 mm with Pseudomonas aeruginosa [10]; 22 mm in the assay on Escherichia coli [11]; 24 mm in the assay on Bacillus subtilis [12]; 26 mm with Staphylococcus aureus [13].

As to `O=C1CSC(c2cc3ccccc3nc2Cl)N1c1ccc(Cl)cc1` (configuration not stated), the “growth inhibition (GI)” value in [1] is reported as 96%. In addition, the MIC in assay [1] was 62.5 µg/mL (≈ 167 µM); in the assay with Candida albicans [2] it was 50 µg/mL (≈ 133 µM); in the assay with Aspergillus niger [3], 12.5 µg/mL (≈ 33.3 µM); in the assay with Pseudomonas aeruginosa [4] it was 25 µg/mL (≈ 66.6 µM); with Escherichia coli [5] it was 50 µg/mL (≈ 133 µM); with Bacillus subtilis [6], 12.5 µg/mL (≈ 33.3 µM). In addition, the MIC with Staphylococcus aureus [7] stood at 50 µg/mL (≈ 133 µM). For the same compound, the “diameter of the inhibition zone (DIZ)” value in the assay on Candida albicans [8] was 22 mm; with Aspergillus niger [9], 25 mm; with Pseudomonas aeruginosa [10], 24 mm; in the assay on Escherichia coli [11] it was 23 mm; in the assay on Bacillus subtilis [12], 24 mm; in the assay on Staphylococcus aureus [13], 23 mm.

Consider `O=C1CSC(c2cc3ccccc3nc2Cl)N1c1ccc(F)cc1` (configuration not stated), for which the “growth inhibition (GI)” value in assay [1] was 99%. Besides, the MIC in assay [1] is 12.5 µg/mL (≈ 34.8 µM); in the assay on Candida albicans [2], 25 µg/mL (≈ 69.7 µM); in the assay with Aspergillus niger [3] it was 12.5 µg/mL (≈ 34.8 µM); with Pseudomonas aeruginosa [4] it was 25 µg/mL (≈ 69.7 µM); in the assay on Escherichia coli [5] it was 25 µg/mL (≈ 69.7 µM); in the assay on Bacillus subtilis [6], 12.5 µg/mL (≈ 34.8 µM). Further, in the assay on Staphylococcus aureus [7], the MIC is 25 µg/mL (≈ 69.7 µM). For the same compound, the “diameter of the inhibition zone (DIZ)” value in the assay with Candida albicans [8] came out at 24 mm; with Aspergillus niger [9], 25 mm; in the assay with Pseudomonas aeruginosa [10], 24 mm; in the assay with Escherichia coli [11], 23 mm; with Bacillus subtilis [12], 23 mm; in the assay on Staphylococcus aureus [13] it was 24 mm.

Consider `Cc1cnc(N2C(=O)CSC2c2cc3ccccc3nc2Cl)s1` (configuration not stated), for which the “growth inhibition (GI)” value in [1] is on record as 98%. The MIC in [1] is 25 µg/mL (≈ 69.1 µM); in the assay with Candida albicans [2] it was 100 µg/mL (≈ 276 µM); with Aspergillus niger [3], 62.5 µg/mL (≈ 173 µM); with Pseudomonas aeruginosa [4], 50 µg/mL (≈ 138 µM); in the assay with Escherichia coli [5] it was 25 µg/mL (≈ 69.1 µM); with Bacillus subtilis [6], 50 µg/mL (≈ 138 µM). Also, the MIC in the assay on Staphylococcus aureus [7] came out at 50 µg/mL (≈ 138 µM). Further, the “diameter of the inhibition zone (DIZ)” value is 23 mm in the assay with Candida albicans [8]; 24 mm in the assay on Aspergillus niger [9]; 22 mm with Pseudomonas aeruginosa [10]; 24 mm with Escherichia coli [11]; 23 mm in the assay with Bacillus subtilis [12]; 24 mm in the assay with Staphylococcus aureus [13].

In the case of `O=C(O)c1cn(C2CC2)c2cc(N3CCNCC3)c(F)cc2c1=O` [CIPROFLOXACIN], the MIC in the assay on Pseudomonas aeruginosa [4], with Escherichia coli [5], with Bacillus subtilis [6] and in the assay on Staphylococcus aureus [7] was not above 1 µg/mL throughout. Also, the “diameter of the inhibition zone (DIZ)” value in the assay with Pseudomonas aeruginosa [10] turned out to be 33 mm; in the assay with Escherichia coli [11], 32 mm; in the assay with Bacillus subtilis [12], 31 mm; in the assay with Staphylococcus aureus [13], 30 mm.

For `CC[C@@H](CO)NCCN[C@@H](CC)CO` [ETHAMBUTOL], in assay [1], the “growth inhibition (GI)” value stood at 99% and the minimal inhibitory concentration (MIC) was determined as 3.12 µg/mL (≈ 15.3 µM).

Consider `CC(=O)N1CCN(c2ccc(OCC3COC(Cn4ccnc4)(c4ccc(Cl)cc4Cl)O3)cc2)CC1` (configuration not stated) [KETOCONAZOLE], for which the MIC is not above 1 µg/mL in the assay on Candida albicans [2] and not above 3 µg/mL in the assay with Aspergillus niger [3]. For the same compound, the “diameter of the inhibition zone (DIZ)” value in the assay with Candida albicans [8] was found to be 33 mm; in the assay with Aspergillus niger [9], 30 mm.

As for `NC(=O)c1cnccn1` [PYRAZINAMIDE], in assay [1], the “growth inhibition (GI)” value worked out at 99% and the minimal inhibitory concentration (MIC) was 6.25 µg/mL (≈ 50.8 µM).

By MIC is commonly meant the least concentration at which growth counts as inhibited.
